This is an account of results in US10392412B2, “Platinum anticancer agents” (THE REGENTS OF THE UNIVERSITY OF CALIFORNIA, priority 2015, dated 2019).

Structures are written as SMILES. Entries after “also recorded” stand apart in the source; their conditions may differ. Like-named read-outs stand apart in the source and are kept apart here. Marks after values point to notes of the source that are not given here.

The test system of one series is PC3 cells. Put plainly: Cytotoxicity CellTiter-Glo. To be noted: read-out: IC50 (50% growth inhibition); PC3, Prostate; 72 hours. The class given is cell-based, human. Here is the method: (§1) Human cancer cell lines were purchased from UCSF Cell Culture Facility (CCF) or obtained through Material Transfer.
(§2) The range of platinum concentrations used in the studies are 5 μM-100 μM. After 72 hours of treatment, the medium were removed and replaced with 50 μL of the media plus 50 μL of the CellTiterGlo reagent. The number of viable cells in culture will be determined based on quantitation of the ATP present, which is an indicator of the number of active cells. Concentration response graphs were generated for each compound using GraphPad Prism software. The graphs were analyzed using a curve fit for sigmoid dose-response, and IC50 values were derived. The results were expressed as mean IC50 values with the standard error of the mean.
For orientation: Cellular ATP, detected with luciferase, serves as a proxy for viable cell number.

The next series concerns AsPC1 cells. The series can be described thus: Cytotoxicity CellTiter-Glo. The class given is cell-based, human. The note with it: read-out: IC50 (50% growth inhibition); AsPC1, Pancreas; 72 hours. Here is the method:
as §1, §2

The test system of the next series is H226 cells. Put plainly: Cytotoxicity CellTiter-Glo. The class given is cell-based, human. The note with it: read-out: IC50 (50% growth inhibition); H226, Non-small cell squamous; 72 hours. Here is the method: as §1, §2
The subject of a further series is HT29 cells. Put plainly: Cytotoxicity CellTiter-Glo. The class given is cell-based, human. The note with it: read-out: IC50 (50% growth inhibition); HT29, Colon; 72 hours. Here is the method:
as §1, §2

The next series concerns DU145 cells. The series can be described thus: Cytotoxicity CellTiter-Glo. In kind it is cell-based, human. To be noted: read-out: IC50 (50% growth inhibition); DU145, Prostate; 72 hours. Here is the method: as §1, §2
The test system of a further series is HCT116 cells. Put plainly: Cytotoxicity CellTiter-Glo. The class given is cell-based, human. The note with it: read-out: IC50 (50% growth inhibition); HCT116, Colon; 72 hours. Here is the method:
as §1, §2

A further series concerns SNB75 cells. Put plainly: Cytotoxicity CellTiter-Glo. The class given is cell-based, human.
The next series has as its system T98G cells. Put plainly: Cytotoxicity CellTiter-Glo. The class given is cell-based, human.
The next series has as its system U87MG cells. The series can be described thus: Cytotoxicity CellTiter-Glo. In kind it is cell-based, human.
The next series deals with SAOS-2 cells. Put plainly: Cytotoxicity CellTiter-Glo. The class given is cell-based, human. The note with it: SAOS-2, Osteosarcoma.
The next series concerns A673 cells. The series can be described thus: Cytotoxicity CellTiter-Glo. In kind it is cell-based, human.
In another series the test system is SHEP cells. The series can be described thus: Cytotoxicity CellTiter-Glo. The class given is cell-based, human.
For the next series, the system named is RMS13 cells. Put plainly: Cytotoxicity CellTiter-Glo. The class given is cell-based, human. The note with it: RMS13, Rhabdomyosarcoma.
Another series relates to MG-63 cells. Put plainly: Cytotoxicity CellTiter-Glo. In kind it is cell-based, human. The note with it: MG-63, Osteosarcoma.
In series [1] the test system is SK-N-DZ neuroblastoma xenografts. Put plainly: SK-N-DZ neuroblastoma xenograft in nu/nu mice. In kind it is in vivo, mouse. Here is the method:
(§3) The xenograft studies were performed by subcutaneous injection of SK-N-DZ (neuroblastoma, 30×10^6 cells/animal) and RMS13 (rhabdomyosarcoma, 20×10^6 cells/animal) in right flank of the male Charles River Laboratories nu/nu mice (7-8 weeks old, weight ˜20 g). Mice were treated by intravenous tail vein injection once a week for 4 weeks. The tumor sizes and body weights were monitored twice a week. Tumor volumes were calculated according to the following formula: volume=height×[…]×length×0.5236.

Another series relates to PE01 cells. Put plainly: Cytotoxicity CellTiter-Glo. In kind it is cell-based, human. The note with it: read-out: IC50 (50% growth inhibition); PE01, Ovary; 72 hours.
Another series concerns U-2 OS cells. The series can be described thus: Cytotoxicity CellTiter-Glo. The class given is cell-based, human.
A further series has as its system SH-SY5Y cells. The series can be described thus: Cytotoxicity CellTiter-Glo. In kind it is cell-based, human.
A further series concerns PE04 cells. Put plainly: Cytotoxicity CellTiter-Glo. In kind it is cell-based, human. To be noted: read-out: IC50 (50% growth inhibition); PE04, Ovary; 72 hours.
The subject of another series is A2780 cells. The series can be described thus: Cytotoxicity CellTiter-Glo. In kind it is cell-based, human. The note with it: read-out: IC50 (50% growth inhibition); A2780, Ovary; 72 hours.
For a further series, the system named is A204 cells. The series can be described thus: Cytotoxicity CellTiter-Glo. In kind it is cell-based, human. The note with it: A204, Rhabdomyosarcoma.
For another series, the system named is Kelly cells. The series can be described thus: Cytotoxicity CellTiter-Glo. The class given is cell-based, human.
In series [2] the test system is RMS13 rhabdomyosarcoma xenografts. Put plainly: RMS13 rhabdomyosarcoma xenograft in nu/nu mice. In kind it is in vivo, mouse. Here is the method: as §3
The next series concerns A2780-CP cells. The series can be described thus: Cytotoxicity CellTiter-Glo. The class given is cell-based, human. To be noted: read-out: IC50 (50% growth inhibition), Ovary, 72 hours.
Another series has as its system SNF539 cells. The series can be described thus: Cytotoxicity CellTiter-Glo. The class given is cell-based, human.
The next series deals with OVCAR2 cells. The series can be described thus: Cytotoxicity CellTiter-Glo. The class given is cell-based, human. To be noted: read-out: IC50 (50% growth inhibition); OVCAR2, Ovary; 72 hours.
Another series deals with U251 cells. Put plainly: Cytotoxicity CellTiter-Glo. The class given is cell-based, human.
The nature of series [3]: Maximum tolerated dose study: blood chemistry test (Table 7). To be noted: mouse, in vivo, iv, 5 mg/kg. Here is the method: The mice used in MTD were given standard chow devoid of added folic acid (low folate diet) (See, Leamon C P et al., J. Pharmacol. Exp. Ther. 327: 918-925). […] Therefore we also designed a MTD study in mice treated with low folate diet. Food consumption on the day before injection (Day −1) was recorded and then it was monitored every other day. […] Blood for clinical chemistry was collected if possible. Liver, kidney and bone marrow were collected. One side of each tissue (except bone marrow) will be fixed in 4-10% formalin for future histology analysis, and the rest of tissue will be cut into pieces, snap frozen, and stored at −80° C. until analysis. Blood samples for clinical chemistry were centrifuged at 8000 rpm for 10 min at 4° C. within 1 hour of collection. Plasma was collected into 1.5 mL eppendorf tubes and stored at −80° C. until analysis. The measured parameters were alanine transaminase (ALT), aspartate transaminase (AST), alkaline phosphatase (ALP), total bilirubin, glucose, blood urea nitrogen (BUN), creatinine, and electrolytes. All experiments were housed in a virus-free, temperature controlled facility on a 12-h light-dark cycle.

The subject of the next series is genomic DNA. The series can be described thus: Platinum-DNA adducts by ICP-MS in HEK293 cells. The class given is cell-based, human. To be noted: 10 μM, 2 hours. Here is the method: Method to quantify platinum-DNA adducts by ICP-MS has been previously described (5,6). In brief, HEK293 cells were seeded in 6-well poly-D-lysine plate (cell density=0.5×10^6 cells/well). […] After 2 hours, the cells were washed twice with cold HBBS. The platinum content associated with genomic DNA was determined as described elsewhere. Genomic DNA was isolated from the cell pellets using Genomic DNA purification kit (Promega) and the DNA-bound platinum was determined by ICP-MS, which was normalized to total DNA content (determined by absorption spectrometry at 260 nm).

Where [4] appears, read: read-out: IC50 (50% growth inhibition), Brain, 72 hours.
The mark [5] stands for this setting: read-out: IC50 (50% growth inhibition), 72 hours.
Setting [6] is: read-out: IC50 (50% growth inhibition), Neuroblastoma, 72 hours.

In the case of `N.N.[Cl][Pt][Cl]` [Cisplatin, cisplatin, reference compound], the IC50 – broadly, the concentration that gives 50% inhibition – in the series with PC3 cells came to 2.5 ± 0.3 µM; in the series on AsPC1 cells, 2.9 ± 0.03 µM; with H226 cells it was 13.8 ± 2.8 µM; with HT29 cells it was 2.3 ± 0.4 µM; in the series on DU145 cells it was 0.5 ± 0.01 µM; in the series with HCT116 cells, 2.1 ± 0.3 µM. Besides, the IC50 amounted to 15.4 ± 12.6 µM in the series on SNB75 cells (read-out: IC50 (50% growth inhibition), SNB75, Brain, 72 hours); 27.5 µM in the series on T98G cells (setting [4]); 16.2 ± 12.6 µM in the series on U87MG cells (setting [4]); 20.5 ± 9.9 µM with SAOS-2 cells (setting [5]); 0.4 ± 0.3 µM with A673 cells (read-out: IC50 (50% growth inhibition), A673, Ewing's Sarcoma, 72 hours); 4.4 ± 2.4 µM in the series on SHEP cells (setting [6]). The IC50 was 2.5 ± 0.5 µM with RMS13 cells (setting [5]); 5.1 ± 2.3 µM in the series with MG-63 cells (setting [5]); 0.6 ± 0.4 µM in the series on PE01 cells; 59.3 ± 9 µM in the series with U-2 OS cells (read-out: IC50 (50% growth inhibition), Osteosarcoma, 72 hours); 1 ± 0.6 µM in the series with SH-SY5Y cells (setting [6]); 4.9 ± 2 µM with PE04 cells. Further, the IC50 in the series on A2780 cells amounted to 1.2 ± 0.2 µM; with A204 cells (setting [5]), 4.6 ± 4.4 µM; in the series with Kelly cells (setting [6]), 7 ± 5 µM; with A2780-CP cells, 8.6 ± 2.1 µM; with SNF539 cells (read-out: IC50 (50% growth inhibition), SNF539, Brain, 72 hours) it was 6.5 ± 7.2 µM; in the series with OVCAR2 cells, 3.3 ± 1.6 µM. In addition, in the series on U251 cells (read-out: IC50 (50% growth inhibition), U251, Brain, 72 hours), the IC50 stood at 11.2 ± 10.8 µM. In addition, the GI50 (usually the concentration at which growth is held to half of that of the control) with SAOS-2 cells was found to be 20.5 ± 9.9 µM; in the series on A673 cells (A673, Ewing's sarcoma), 0.4 ± 0.3 µM; in the series on SHEP cells (Neuroblastoma), 4.4 ± 2.4 µM; in the series with RMS13 cells, 2.5 ± 0.5 µM; in the series with MG-63 cells it was 5.1 ± 2.3 µM; in the series with U-2 OS cells (Osteosarcoma) it was 59.3 ± 9 µM. Further, the GI50 in the series with SH-SY5Y cells (Neuroblastoma) is 1 ± 0.6 µM; in the series with A204 cells it was 4.6 ± 4.4 µM; in the series with Kelly cells (Neuroblastoma), 7 ± 5 µM. Also, the “tumor volume / tumor growth” value in series [1] (SKNDZ neuroblastoma xenograft, 5 mg/kg i.v. once a week for 4 weeks) is listed as “inhibited tumor growth”; in series [2] (RMS13 rhabdomyosarcoma xenograft, 5 mg/kg i.v. once a week for 4 weeks), “inhibited tumor growth”. Further, the survival result in series [1] (SKNDZ xenograft model, 5 mpk, 5 mg/kg) is “significant difference in survival; also recorded: increase survival rate”; in series [2] (RMS13 xenograft model, 5 mpk) it was “increase survival rate”. The Cl in series [3] is reported as 102.33*.
Turning to `CN(Cc1cnc2nc(N)nc(N)c2n1)c1ccc(C(=O)N[C@@H](CCC(=O)O)C(=O)O)cc1` [Methotrexate, methotrexate, reference compound], in the series on genomic DNA, the “platinum content associated with genomic DNA (platinum-DNA adducts)” value is given as “did not have strong intensity (binding)”.
As for `CN(Cc1cnc2nc(N)nc(N)c2n1)c1ccc(C(=O)NC(CCC(=O)O)C(=O)O)cc1.[Cl][Pt][Cl]` (stereo not shown) [SM-69B], the half-inhibitory concentration (IC50) with SNB75 cells (read-out: IC50 ± S.D. (50% growth inhibition), SNB75, Brain - High grade, + 1 mM Folic Acid) stood at 63.3 ± 3.3 µM; with SNB75 cells (read-out: IC50 ± S.D. (50% growth inhibition), SNB75, Brain - High grade, two independent experiments), 11.1 ± 2.1 µM; in the series on HeLa R1-11 (SLC46A1), 0.702 µM; in the series on T98G cells (read-out: IC50 ± S.D. (50% growth inhibition), Brain - High grade, + 1 mM Folic Acid), 5.3 ± 1.2 µM; in the series with T98G cells (read-out: IC50 ± S.D. (50% growth inhibition), Brain - High grade, two independent experiments), 0.31 ± 0.05 µM; with U87MG cells (read-out: IC50 ± S.D. (50% growth inhibition), Brain - Low grade, + 1 mM Folic Acid) it was 13.9 ± 11.1 µM. The IC50 worked out at 0.96 ± 0.09 µM in the series on U87MG cells (read-out: IC50 ± S.D. (50% growth inhibition), Brain - Low grade, two independent experiments); 0.109 µM with HeLa R1-11 (SLC19A1); 43.2 ± 12.9 µM in the series with SNF539 cells (read-out: IC50 ± S.D. (50% growth inhibition), SF539, Brain - High grade, + 1 mM Folic Acid); 0.46 ± 0.04 µM in the series on SNF539 cells (read-out: IC50 ± S.D. (50% growth inhibition), SF539, Brain - High grade, two independent experiments); 18 ± 1.4 µM with U251 cells (read-out: IC50 ± S.D. (50% growth inhibition), U251, Brain - High grade, + 1 mM Folic Acid); 0.87 ± 0.13 µM in the series with U251 cells (read-out: IC50 ± S.D. (50% growth inhibition), U251, Brain - High grade, two independent experiments).
